Patent US6476043B1, “Use of camptothecin derivatives, with reduced gastrointestinal toxicity” (Aventis Pharma S.A., priority 1998, dated 2002)

Tests used:
[1] = mice, CPT-11 40 mg/kg i.v.; CPT-11 group versus CPT-11/NaCl group, days 1 and 5
Protocol: The body weight is measured on days 1, 3, 6 and 8. The plasma samples for the toxicokinetic analysis are taken on days 1 and 5. […] The relative and absolute weights of the thymus, of the spleen and of the testicles are measured, and the complete gastrointestinal tract, the sternal bone marrow, the thymus, the spleen, the testicles and the epididymes are removed from all the mice and subjected to examination under a microscope.

CD1 male mice = test: Study I: protective effect of oral sodium chloride solution on the intestinal toxicity of intravenous CPT-11; assay type: in vivo
Protocol: The body weight is recorded on days 1, 6, 11 and 13. […] The complete gastrointestinal tract is removed from all of the mice. The gastrointestinal tract of the mice which survived to the end of the observation period is subjected to examination under a microscope.

[2] = system: mammary adenocarcinoma MA16/C; test: Study IV: effect of oral sodium chloride solution on the antitumour activity of intravenous CPT-11
From the text: A Log tumour cell kill value of 0.7 corresponds to minimum activity, while a value greater than 2.8 corresponds to a high level of activity.

Protocol for female Beagle dogs: The animals are kept with no administration for 2 days after the final administration of sodium chloride at 9 g/l (up to day 9).
The body weight is recorded during the pretest period and on days 5 and 9. The animals are sacrificed and autopsied on day 9. Representative tissue samples taken from the gastrointestinal tract are removed from all the animals and subjected to examination under a microscope.

| Structure (SMILES) | areas under the curve (AUC) [1] | maximum plasma concentrations (Cmax) [1] | severity of gastrointestinal lesions (degeneration of the mucosa) (female Beagle dogs; CPT-11 20 mg/kg single i.v. dose on day 6, autopsy day 9) | redness on the mucosa of the large intestine (frequency) (female Beagle dogs; CPT-11 20 mg/kg single i.v. dose, CPT-11 group compared with CPT-11/NaCl group) | loss of body weight (CD1 male mice; CPT-11 40 mg/kg i.v. days 6 to 10, CPT-11 group compared with CPT-11/NaCl group) | severity of microscopic intestinal lesions (loss of crypts, shortening of villi) (CD1 male mice; CPT-11 40 mg/kg i.v. days 6 to 10, autopsy day 13, small intestine) | mortality linked to the administration of CPT-11 (CD1 male mice; CPT-11 40 mg/kg i.v. days 6 to 10, observed on days 6 and 7, dead/total mice) | total cumulative dose at the maximum nontoxic dose ([2]; C3H/HeN female mice carrying MA16/C, i.v. for 5 consecutive days) [mg/kg] | maximum loss of body weight ([2]; at the maximum nontoxic dose, day 11 (CPT-11 group), day 12 (CPT-11/NaCl group)) [%] | Log cell kill value ([2]; mammary adenocarcinoma MA16/C s.c. in C3H/HeN female mice, at the maximum nontoxic dose) |
| --- | --- | --- | --- | --- | --- | --- | --- | --- | --- | --- |
| CCc1c2c(nc3ccc(O)cc13)-c1cc3c(c(=O)n1C2)COC(=O)[C@]3(O)CC [SN-38] | identical | identical | – | – | – | – | – | – | – | – |
| CCc1c2c(nc3ccc(OC(=O)N4CCC(N5CCCCC5)CC4)cc13)-c1cc3c(c(=O)n1C2)COC(=O)[C@]3(O)CC [CPT-11, irinotecan] | identical | identical | moderate to pronounced | more common | greater | moderate to pronounced | 7/15 | 118 | 10 | 1.7 |
